Paper PMC2810320 (Journal of the American Chemical Society, 2010)

How the values were obtained:
porcine bc1 complex [1] = target: T1, porcine bc1 complex (Sus scrofa, UniProt P24964); test: Succinate-cytochrome c reductase; type: biochemical; conditions: for ΔG ΔGexp.: ΔGexp. = −RTlnKi
porcine bc1 complex [2] = target: T1, porcine bc1 complex; test: Ubiquinol-cytochrome c reductase; type: biochemical
[3] = DBH2 and cytochrome c as substrates, pH 6.5, 750 µM lauryl maltoside

T1 sequence (P24964 whole entry, one chain of several): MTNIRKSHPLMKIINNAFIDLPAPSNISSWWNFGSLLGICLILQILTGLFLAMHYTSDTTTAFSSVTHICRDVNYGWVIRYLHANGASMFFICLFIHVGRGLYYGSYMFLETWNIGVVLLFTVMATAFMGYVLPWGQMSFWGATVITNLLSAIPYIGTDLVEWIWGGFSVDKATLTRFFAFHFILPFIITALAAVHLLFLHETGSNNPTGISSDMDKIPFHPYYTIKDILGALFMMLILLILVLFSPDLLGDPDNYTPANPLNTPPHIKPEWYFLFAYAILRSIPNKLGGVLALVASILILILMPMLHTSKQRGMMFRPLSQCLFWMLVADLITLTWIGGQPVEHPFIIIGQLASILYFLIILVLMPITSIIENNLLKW

SMILES | ΔG ΔGexp. (porcine bc1 complex [1]) [kcal/mol] | further results
CO/C=C(/C(=O)OC)c1ccccc1Oc1cc(Oc2ccccc2C#N)ncn1 [AZ, azoxystrobin, reference compound] | -8.92 | –
CO/C=C(/C(=O)OC)c1ccccc1COc1cc(-c2ccccc2O)nn1C [Compound 5a] | -12.19 | –
CO/C=C(/C(=O)OC)c1ccccc1COc1cc(-c2cc(C)ccc2O)nn1C [Compound 5b] | -11.62 | –
CO/C=C(/C(=O)OC)c1ccccc1COc1cc(-c2cc(Cl)ccc2O)nn1C [Compound 5c] | -12.63 | type of inhibition with respect to substrate cytochrome c (porcine bc1 complex [1]; kobs independent of cytochrome c concentration, 5 nM 5c): non-competitive inhibitor; kon (porcine bc1 complex [1]; pH 7.4, read-out: apparent rate constant A (association rate constant k+0)): 6.31e+06 ± 360000 M⁻¹ s⁻¹; koff (porcine bc1 complex [1]; pH 7.4, read-out: apparent rate constant B (dissociation rate constant k−0)): 0.00358 s⁻¹; fold improved binding affinity compared to AZ (porcine bc1 complex [1]; ratio of Ki values, vs AZ): about 522 fold; Ki (porcine bc1 complex [2]): 2.6 ± 0.1 nM; microscopic inhibition rate constant k+0 (porcine bc1 complex [2]; [3]): 1.85e+06 ± 30000 M⁻¹ s⁻¹; microscopic inhibition rate constant k−0 (porcine bc1 complex [2]; [3]): 0.0048 ± 0.00018 s⁻¹; Ki fold higher than that measured from succinate-cytochrome c reductase activity inhibition (porcine bc1 complex [2]; DBH2 assay Ki vs SCR assay Ki): about 5 fold; type of inhibition with respect to substrate ubiquinol (porcine bc1 complex [2]; varying DBH2 20–115 µM): competitive inhibitor
CO/N=C(/C(=O)OC)c1ccccc1COc1cc(-c2ccccc2O)nn1C [Compound 5d] | -11.50 | –
CO/C=C(/C(=O)OC)c1ccccc1COc1cc(-c2ccccc2OC)nn1C [Compound 6a] | -10.29 | –
CO/C=C(/C(=O)OC)c1ccccc1COc1cc(-c2cc(C)ccc2OC)nn1C [Compound 6b] | -10.52 | –
CO/C=C(/C(=O)OC)c1ccccc1COc1cc(-c2ccccc2OCc2ccccc2)nn1C [Compound 6c] | -10.79 | –
CO/C=C(/C(=O)OC)c1ccccc1COc1cc(-c2ccccc2OC(=O)c2ccc(F)cc2)nn1C [Compound 6d] | -9.56 | –
CO/N=C(/C(=O)OC)c1ccccc1COc1ccccc1C [KM, kresoxim-methyl, reference compound] | -9.28 | –
COC(=O)N(OC)c1ccccc1COc1ccn(-c2ccc(Cl)cc2)n1 [PY, pyraclostrobin, reference compound] | -11.59 | –
